Our source for the melting point values is the Bradley open melting point set (2014).

“And” between values parts separate entries of the source, which are not always exact repeats. Equal values may be shown once.

For `C=CCC1(c2ccccc2)C(=O)NC(=O)NC1=O` [5-allyl-5-phenylbarbiturate], the melting point (in general, the temperature, or range, at which the solid turns liquid) came out at 158 °C.

With `COc1cccc(P(c2cccc(OC)c2)c2cccc(OC)c2)c1` [tris(3-methoxyphenyl)phosphine], the melting point is 114 °C.

`Nc1ccc(C(F)(F)F)cc1` [4-(trifluoromethyl)aniline] registered a melting point of 7 °C.

With `O=Cc1ccc(-c2ccccc2)cc1` [biphenyl-4-carboxaldehyde], the melting point is 59 °C.

Regarding `C1CCCCCCC1` [cyclooctane], the melting point came out at 15 °C.

Regarding `Cc1ccc(I)cc1` [p-iodotoluene], the melting point was determined as 43 °C.

As to `COc1ccc(C(O)C(=O)O)cc1` (configuration not stated) [4-methoxymandelic acid], the melting point is 107 °C.

Regarding `CCCCCCCCCN` [1-nonylamine], the melting point is -1 °C.

`Cc1c(Cl)cccc1C#N` [3-chloro-2-methylbenzonitrile]: the melting point turned out to be 22 °C.

The compound `O=Cc1ccc(N2CCCC2)c([N+](=O)[O-])c1` [3-nitro-4-(1-pyrrolidinyl)benzaldehyde] yielded a melting point of 103 °C.

Compound `CCOC(=O)C(C=Cc1cccc(C=CC(C(=O)OCC)C(=O)OCC)c1)C(=O)OCC` came in with a melting point of 101 °C.

For `Cc1ccc(S(=O)(=O)NC2CCCCC2)cc1` [N-Cyclohexyl-4-methylbenzenesulfonamide], the melting point came out at 84.5 °C.

As to `CCC1(C2=CCCCCC2)C(=O)NC(=O)NC1=O` [Heptabarbital], the melting point worked out at 174 °C.

Compound `COc1ccc(/C=C/C(=O)c2ccccc2)cc1OC` [3,4-dimethoxychalcone] gave a melting point of 89 °C.

Regarding `O=c1c(-c2ccc(O)cc2)coc2cc(O)cc(O)c12` [Genistein], the melting point worked out at 302 °C.

Compound `O=Cc1coc2ccccc2c1=O` [chromone-3-carboxaldehyde] showed a melting point of 152 °C.

`C=CC(=O)O` [acrylic_acid]: the melting point is 13 °C.

`COc1ccc(/N=N/c2c(N)nn3c(C(F)(F)F)cc(C)nc23)cc1`: the melting point came out at 159 °C.

The compound `C/C=C/C(C)C` [4-methyl-trans-2-pentene] showed a melting point of -141 °C.

Regarding `OC1CCCCCCC1` [cyclooctanol], the melting point was determined as 15 °C.

Compound `Nc1ccn([C@@H]2O[C@H](CO)[C@@H](O)[C@H]2O)c(=O)n1` [Cytidine] came in with a melting point of 210 °C.

As to `COc1ccccc1/C=C(/C#N)c1nc2ccccc2s1`, the melting point came out at 159 °C.

`C1CCSC1` [Tetrahydrothiophene] registered a melting point of -96 °C.

The compound `CCC(C)(C)C(=O)O[C@H]1C[C@@H](C)C=C2C=C[C@H](C)[C@H](CC[C@@H]3C[C@@H](O)CC(=O)O3)[C@H]21` [Simvastatin] registered a melting point of 136 °C.

For `CCOC(=O)c1cncn1C(C)c1ccccc1` (configuration not stated) [etomidate], the melting point came to 67 °C.

In turn, `N#Cc1ccccc1[N+](=O)[O-]` [2-nitrobenzonitrile] returned a melting point of 109 °C.

For the compound `CCOC(=O)Nc1cccc([N+](=O)[O-])c1[N+](=O)[O-]` [ethyl (2,3-dinitrophenyl)carbamate], the melting point came to 103 °C.

`Cc1ccc(CNC2=CC(=O)c3ccccc3C2=O)nc1` [2-{[(5-methylpyridin-2-yl)methyl]amino}naphthalene-1,4-dione] yielded a melting point of 135 °C.

For the compound `CC(=O)c1cc(O)cc(O)c1` [3',5'-dihydroxyacetophenone], the melting point turned out to be 144 °C.

Compound `CC(C)S` [2-propanethiol] came in with a melting point of -131 °C.

`COC1=C(OC)C(=O)C(C/C=C(\C)CC/C=C(\C)CC/C=C(\C)CC/C=C(\C)CC/C=C(\C)CC/C=C(\C)CC/C=C(\C)CC/C=C(\C)CC/C=C(\C)CCC=C(C)C)=C(C)C1=O` gave a melting point of 49 °C.

Take `CCCCCOCCCCC` [pentyl_ether]: the melting point was -69 °C.

`O=Cc1ccc2c(c1)OCCO2` [1,4-benzodioxane-6-carboxaldehyde] came in with a melting point of 50 °C.

On to `COc1ccc(C=C[N+](=O)[O-])cc1OCc1ccccc1` [2-(benzyloxy)-1-methoxy-4-(2-nitrovinyl)benzene], for which the melting point is 120 °C.

Regarding `Oc1ccc(/C=C/c2cc(O)cc(O)c2)cc1` [resveratrol], the melting point is 254 °C.

Compound `CCOC(=O)CNC(=O)c1ccccc1` [ethyl hippurate] returned a melting point of 59 °C.

For `CCCCCCCCCCCCO[C@@H]1O[C@H](CO)[C@@H](O[C@H]2O[C@H](CO)[C@@H](O)[C@H](O)[C@H]2O)[C@H](O)[C@H]1O` [Dodecyl 4-O-alpha-D-glucopyranosyl-beta-D-glucopyranoside], the melting point is 150 °C.

With `CC(=O)CC(=O)c1ccccc1` [benzoylacetone], the melting point worked out at 59 °C.

As to `O=C(O)COc1cccc(Cl)c1` [3-chlorophenoxyacetic acid], the melting point stood at 108 °C.

As to `O=C(O)CI` [iodoacetic acid], the melting point was found to be 81 °C.

For `COC(=O)c1cc(C)n(CN(Cn2nc(C(=O)OC)cc2C)c2ccccc2)n1`, the melting point turned out to be 125 °C.

`CC1(C)COB(B2OCC(C)(C)CO2)OC1` [bis(neopentyl glycolato)diboron]: the melting point is 183 °C.

On to `N#Cc1cccc(O)c1` [3-cyanophenol], for which the melting point worked out at 82 °C.

With `O=[N+]([O-])c1ccc(CO)cc1` [4-nitrobenzyl alcohol], the melting point is 94 °C.

`CCCCCCC` [heptane]: the melting point is -91 °C and -90.6 °C.

Turning to `CN(C)c1ccc(/C=N/c2ccccc2)cc1` [N-(4-Dimethylaminobenzylidene)aniline], the melting point is 99 °C and 100 °C.

As for `Oc1ccccc1O` [catechol], the melting point is 106 °C.

Compound `CCCC(=O)c1ccccc1` [butyrophenone] yielded a melting point of 12 °C.

Consider `O=C(c1ccccc1)c1cccc(Cl)c1` [3-chlorobenzophenone], for which the melting point was determined as 83 °C.

Regarding `CC1COc2c(N3CCN(C)CC3)c(F)cc3c(=O)c(C(=O)O)cn1c23` (configuration not stated) [Ofloxacin], the melting point was 254 °C.

For `O=[N+]([O-])c1ccc(Oc2ccc(C(F)(F)F)cc2[N+](=O)[O-])cc1` [Fluorodifen], the melting point amounted to 90 °C.

The compound `COc1ccc(B(O)O)c(OC)c1` [2,4-dimethoxybenzeneboronic acid] came in with a melting point of 118 °C.

`CCc1ccc2c(c1)C(=O)c1ccccc1C2=O` [2-ethylanthraquinone] registered a melting point of 109 °C.

For `OCCN1CCOCC1` [4-(2-hydroxyethyl)morpholine], the melting point was 2 °C.

For the compound `O=C(c1ccccc1)c1ccc(Br)cc1` [p-bromobenzophenone], the melting point came to 82 °C.

As for `C1CCC(C2CCCCC2)CC1` [1,1'-Bi(cyclohexyl)], the melting point is 4 °C.

As for `CCCCP(CCCC)CCCC` [tri-n-butylphosphine], the melting point is -65 °C.

For the compound `O=C1CCC(N2C(=O)c3ccccc3C2=O)C(=O)N1` (configuration not stated) [2-(2,6-Dioxopiperidin-3-yl)-1H-isoindole-1,3(2H)-dione], the melting point came out at 270 °C.

As for `c1ccc2c(c1)sc1ccccc12` [dibenzothiophene], the melting point turned out to be 99 °C.

`CC(C)c1ccc(B(O)O)cc1` [4-isopropylbenzeneboronic acid] gave a melting point of 143 °C.

Turning to `CC(Cl)(Cl)Cl` [1,1,1-trichloroethane], the melting point is -30 °C.

Regarding `O=C5\C=C4/C(C3CCC2(C(CCC2OC(=O)c1ccccc1)C3CC4)C)(C)CC5` (configuration not stated) [Testosterone benzoate], the melting point amounted to 195 °C.

Consider `COc1cccc(/C=C/[N+](=O)[O-])c1OC` [2,3-dimethoxy-beta-nitrostyrene], for which the melting point came to 81 °C.

For `OCc1ccc(-c2ccccc2)cc1` [4-biphenylmethanol], the melting point was determined as 46 °C.

Consider `O=Cc1ccc(Cl)cc1` [p-chlorobenzaldehyde], for which the melting point is 46 °C.

The compound `CC1(C)CC(=O)C(=NNc2ccccc2[N+](=O)[O-])C(=O)C1` displayed a melting point of 140 °C.

`CC1CO1` (configuration not stated) [propylene oxide]: the melting point is -112 °C.

`CCC1(c2ccccc2)C(=O)NC(=O)NC1=O` [Phenobarbital] registered a melting point of 176 °C.

The compound `O=[PH](c1ccccc1)c1ccccc1` [diphenylphosphine oxide] displayed a melting point of 54 °C.

Turning to `CSc1ccc(C(=O)c2[nH]c(=O)[nH]c2C)cc1` [Enoximone], the melting point amounted to 256 °C.

For `CC1=CC(O)(c2ccccc2)c2ccccc21` (configuration not stated) [3-methyl-1-phenyl-1H-inden-1-ol], the melting point came to 76 °C.

`O=C(O)c1cc([N+](=O)[O-])ccc1Cl` [2-chloro-5-nitrobenzoic acid]: the melting point came out at 167 °C.

Take `CCCCC1(CC)C(=O)NC(=O)NC1=O` [Butethal]: the melting point is 128 °C.

Consider `N#C/C(=N/Nc1cc(Cl)ccc1Cl)c1nc(-c2ccccc2)cs1`, for which the melting point turned out to be 134 °C.

The compound `Cc1ccc(NC(=O)Nc2ccc(C)cc2)cc1` [1,3-bis(4-tolyl)urea] registered a melting point of 266 °C.

`Oc1cccc(Cl)n1` [2-chloro-6-hydroxypyridine] returned a melting point of 130 °C.

For `Nc1ccc(CO)cc1` [p-amino_benzyl_alcohol], the melting point turned out to be 75 °C.

Compound `O=C(CC(=O)C(F)(F)F)c1ccco1` [4,4,4-trifluoro-1-(2-furyl)-1,3-butanedione] gave a melting point of 21 °C.

In turn, `CCCCCCCC` [N-Octane] registered a melting point of -56.8 °C.

`O=Cc1cc(Cl)ccc1O` [5-chlorosalicylaldehyde] had a melting point of 101 °C.

`CC(=O)OC1CCC2(C)C(C1)CC1(OCCO1)C1C2CCC2(C)C1CCC21OCCO1` (configuration not stated) came in with a melting point of 208 °C.

Compound `O=C(Nc1ccc([N+](=O)[O-])cc1Cl)c1cc(Cl)ccc1O` [5-Chloro-N-(2-chloro-4-nitrophenyl)-2-hydroxybenzamide] had a melting point of 223 °C.

In the case of `Nc1cccc2c(=O)[nH][nH]c(=O)c12` [3-aminophthalhydrazide], the melting point turned out to be 328 °C.

For `CC(=O)c1ccc(S(=O)(=O)NC(=O)NC2CCCCC2)cc1` [acetohexamide], the melting point came to 188 °C.

In turn, `CC(N)=O` [Acetamide] came in with a melting point of 81 °C.

In turn, `O=C(O)c1ccc(I)cc1` [4-iodobenzoic acid] returned a melting point of 270 °C.

Consider `NC(=O)N1c2ccccc2C=Cc2ccccc21` [carbamazepine], for which the melting point came out at 192 °C.
